Test results as given in patent US10961202B2, “Bis-benzimidazole compounds and methods of using the same” (THE SCRIPPS RESEARCH INSTITUTE, priority 2017, dated 2021).

System: r(CUG)12-MBNL1 complex
Experiment: Inhibition of the r(CUG)12-MBNL1 complex measured by TR-FRET
Type: biochemical
Settings: 80 nM RNA, 60 nM MBNL1-His6

| Compound | IC50 (Table M) | IC50 (Table L) |
| --- | --- | --- |
| CN(C)CC#CCOc1ccc2nc(-c3ccc(-c4nc5ccc(OCC#CCN(C)C)cc5[nH]4)cc3)[nH]c2c1 [Compound 226, 4,4′-((2,2′-(1,4-phenylene)bis(1H-benzo[d]imidazole-6,2-diyl))bis(oxy))bis(N,N-dimethylbut-2-yn-1-amine)] | > 200 µM | – |
| N=C(N)c1ccc2nc(-c3ccc(-c4nc5ccc(C(=N)N)cc5[nH]4)cc3)[nH]c2c1 [Compound 26, 2,2′-(1,4-phenylene)bis(1H-benzo[d]imidazole-6-carboximidamide) acetate] | – | 6.6 µM |
| CN(C)CCNC(=O)c1ccc(-c2nc3cc(-c4ccc5[nH]c(-c6ccc(C#N)cc6)nc5c4)ccc3[nH]2)cc1 [Compound 109] | – | 15 µM |
| CN(C)CCCOc1cccc2nc(-c3ccc(-c4nc5cccc(OCCCN(C)C)c5[nH]4)cc3)[nH]c12 [Compound 215, 3,3′-((2,2′-(1,4-phenylene)bis(1H-benzo[d]imidazole-7,2-diyl))bis(oxy))bis(N,N-dimethylpropan-1-amine)] | 20.5 µM | – |
| CN(C)CCOC(=O)c1ccc2nc(-c3ccc(-c4nc5ccc(C(=O)OCCN(C)C)cc5[nH]4)cc3)[nH]c2c1 [Compound 54, bis(2-(dimethylamino)ethyl) 2,2′-(1,4-phenylene)bis(1H-benzo[d]imidazole-6-carboxylate)] | – | 3.6 µM |
| NCC(=O)NCC(=O)NCc1cn(CCN2CCN(CCNC(=O)c3ccc4nc(-c5ccc(-c6nc7ccc(C(=O)NCCN8CCCCC8)cc7[nH]6)cc5)[nH]c4c3)CC2)nn1 [Compound 178, N-(2-(4-(2-(4-((2-(2-aminoacetamido)acetamido)methyl)-1H-1,2,3-triazol-1-yl)ethyl)piperazin-1-yl)ethyl)-2-(4-(6-((2-(piperidin-1-yl)ethyl)carbamoyl)-1H-benzo[d]imidazol-2-yl)phenyl)-1H-benzo[d]imidazole-6-carboxamide] | 7.9 µM | – |
| COc1ccc(-c2nc3cc(-c4ccc5[nH]c(-c6ccc(OC)cc6)nc5c4)ccc3[nH]2)cc1 [Compound 106] | – | > 200 µM |
| CN1CCC[C@H]1COc1ccc2nc(-c3ccc(-c4nc5ccc(OC[C@@H]6CCCN6C)cc5[nH]4)cc3)[nH]c2c1 [Compound 199] | 47.8 µM | – |
| CN(C)CCCNC(=O)c1ccc2nc(-c3ccc(-c4nc5ccc(C(=O)NCCN(C)C)cc5[nH]4)cc3)[nH]c2c1 [Compound 35, N-(2-(dimethylamino)ethyl)-2-(4-(6-((3-(dimethylamino)propyl)carbamoyl)-1H-benzo[d]imidazol-2-yl)phenyl)-1H-benzo[d]imidazole-6-carboxamide] | – | 6.2 µM |
| CN(C)CCNC(=O)c1ccc2nc(-c3ccc(-c4nc5ccc(C(=O)NCCN)cc5[nH]4)cc3)[nH]c2c1 [Compound 29, N-(2-aminoethyl)-2-(4-(6-((2-(dimethylamino)ethyl)carbamoyl)-1H-benzo[d]imidazol-2-yl)phenyl)-1H-benzo[d]imidazole-6-carboxamide] | – | 9.6 µM |
| Cn1c(-c2ccc(-c3nc4cc(Br)ccc4n3C)cc2)nc2cc(Br)ccc21 [Compound 89, 1,4-bis(5-bromo-1-methyl-1H-benzo[d]imidazol-2-yl)benzene] | – | > 200 µM |
| CN(C)CCOc1ccc(-c2nc3cc(-c4ccc5[nH]c(-c6cccc(OCCN(C)C)c6)nc5c4)ccc3[nH]2)cc1 [Compound 355] | 11.2 µM | – |
| CN(C)Cc1ccc(COc2ccc3nc(-c4ccc(-c5nc6ccc(OCc7ccc(CN(C)C)cc7)cc6[nH]5)cc4)[nH]c3c2)cc1 [Compound 217] | 51.9 µM | – |
| Nc1ccc2nc(-c3ccc(-c4ccc(-c5nc6ccc(N)cc6[nH]5)cc4)cc3)[nH]c2c1 [Compound 80] | – | 31.3 µM |
| CN(C)CCOCCOc1ccc(-c2nc3cc(-c4ccc5[nH]c(-c6ccc(OCCOCCN(C)C)cc6)nc5c4)ccc3[nH]2)cc1 [Compound 367] | 21.5 µM | – |
| c1cc2nc(-c3ccc(-c4nc5ccc(OCCN6CCOCC6)cc5[nH]4)cc3)[nH]c2cc1OCCN1CCOCC1 [Compound 186] | > 200 µM | – |
| CC(C)(C)OC(=O)NCCNC(=O)c1ccc2nc(-c3ccc(-c4nc5ccc(C(=O)NCCNC(=O)OC(C)(C)C)cc5[nH]4)cc3)[nH]c2c1 [Compound 50, di-tert-butyl(((2,2′-(1,4-phenylene)bis(1H-benzo[d]imidazole-6,6′-carbonyl))bis(azanediyl))bis(ethane-2,1-diyl))dicarbamate] | – | > 200 µM |
| CN(C)CCNC(=O)c1ccc(-c2nc3ccc(-c4ccc5nc(-c6ccc(C(=O)N(C)CCOCCOCCOCCOCc7cn(CCCNCC(=O)N8CCC[C@H]8C(=O)N8CCC[C@H]8C(=O)N8CCC[C@H]8C(=O)N8CCC[C@H]8C(=O)N(CCCn8cc(COCCOCCOCCOCCN(C)C(=O)c9ccc(-c%10nc%11ccc(-c%12ccc%13nc(-c%14ccc(C(=O)NCCN(C)C)cc%14)[nH]c%13c%12)cc%11[nH]%10)cc9)nn8)CC(N)=O)nn7)cc6)[nH]c5c4)cc3[nH]2)cc1 [Compound 433] | > 200 µM | – |
| CN(C)CCNC(=O)c1ccc2nc(-c3ccc(-c4nc5ccc(C(=O)NCCN(C)C)cc5[nH]4)c(Br)c3)[nH]c2c1 [Compound 78] | – | > 200 µM |
| CN(C)CCCOc1ccc2nc(-c3cc(F)c(-c4nc5ccc(OCCCN(C)C)cc5[nH]4)cc3F)[nH]c2c1 [Compound 296] | 8.4 µM | – |
| CN(C)CCCOc1cc2[nH]c(-c3cc(F)c(-c4nc5cc(F)c(OCCCN(C)C)cc5[nH]4)cc3F)nc2cc1F [Compound 331] | 3.11 µM | – |
| CN1CC[C@@H](Oc2ccc3nc(-c4ccc(-c5nc6ccc(O[C@@H]7CCN(C)C7)cc6[nH]5)cc4)[nH]c3c2)C1 [Compound 181] | 54.4 µM | – |
| CN1C2CCC1CC(NC(=O)c1ccc(-c3nc4cc(-c5ccc6[nH]c(-c7ccc(C(=O)NC8CC9CCC(C8)N9C)cc7)nc6c5)ccc4[nH]3)cc1)C2 (stereo not shown) [Compound 341] | 5.32 µM | – |
| CN(C)CCCSCCOc1ccc2nc(-c3ccc(-c4nc5ccc(OCCSCCCN(C)C)cc5[nH]4)cc3)[nH]c2c1 [Compound 207] | 48.6 µM | – |
| COC(=O)CCC(=O)NCCN(C)CCNC(=O)c1ccc2nc(-c3ccc(-c4nc5ccc(C(=O)NCCN(C)C)cc5[nH]4)cc3)[nH]c2c1 [Compound 72] | – | 52.1 µM |

Next, values leading:

| IC50 (Table M) | IC50 (Table L) | Compound |
| --- | --- | --- |
| 66 µM | – | C[C@H](CNC(=O)c1ccc(-c2nc3ccc(-c4ccc5nc(-c6ccc(C(=O)NCCN(C)C)cc6)[nH]c5c4)cc3[nH]2)cc1)NC(=O)c1ccc(-c2nc3ccc(-c4ccc5nc(-c6ccc(C(=O)NCCN(C)C)cc6)[nH]c5c4)cc3[nH]2)cc1 [Compound 441] |
| 9.24 µM | – | C[C@@H](C(=O)N(C)[C@@H](C)C(=O)N(C)[C@@H](C)C(=O)N(C)[C@@H](C)C(=O)N(C)[C@@H](C)C(=O)N(CCCCN(C)C(=O)c1ccc(-c2nc3cc(-c4ccc5[nH]c(-c6ccc(C(=O)NCCN(C)C)cc6)nc5c4)ccc3[nH]2)cc1)CC(N)=O)N(C)C(=O)c1ccc(-c2nc3cc(-c4ccc5[nH]c(-c6ccc(C(=O)NCCN(C)C)cc6)nc5c4)ccc3[nH]2)cc1 [Compound 417] |
| 10.9 µM | – | CN(C)CCNC(=O)c1ccc(-c2nc3ccc(-c4ccc5nc(-c6ccc(C(=O)N7CCC(C8CCN(C(=O)c9ccc(-c%10nc%11ccc(-c%12ccc%13nc(-c%14ccc(C(=O)NCCN(C)C)cc%14)[nH]c%13c%12)cc%11[nH]%10)cc9)CC8)CC7)cc6)[nH]c5c4)cc3[nH]2)cc1 [Compound 439] |
| 34.2 µM | – | C[C@@H](CN(C)C)NC(=O)c1ccc(-c2nc3cc(-c4ccc5[nH]c(-c6ccc(C(=O)N[C@@H](C)CN(C)C)cc6)nc5c4)ccc3[nH]2)cc1 [Compound 389] |
| 19 µM | – | CN(C)CCNC(=O)c1ccc(-c2nc3cc(-c4ccc5[nH]c(-c6ccc(OCCCC#N)cc6)nc5c4)ccc3[nH]2)cc1 [Compound 394] |
| 5.15 µM | – | C[C@@H](C(=O)N(C)[C@@H](C)C(=O)N(C)[C@@H](C)C(=O)N(CCCCN(C)C(=O)c1ccc(-c2nc3cc(-c4ccc5[nH]c(-c6ccc(C(=O)NCCN(C)C)cc6)nc5c4)ccc3[nH]2)cc1)CC(N)=O)N(C)C(=O)c1ccc(-c2nc3cc(-c4ccc5[nH]c(-c6ccc(C(=O)NCCN(C)C)cc6)nc5c4)ccc3[nH]2)cc1 [Compound 415] |
| 7.04 µM | – | CC(CCCNC(=O)c1ccc(-c2nc3ccc(-c4ccc5nc(-c6ccc(C(=O)NCCN(C)C)cc6)[nH]c5c4)cc3[nH]2)cc1)CNC(=O)c1ccc(-c2nc3ccc(-c4ccc5nc(-c6ccc(C(=O)NCCN(C)C)cc6)[nH]c5c4)cc3[nH]2)cc1 (stereo not shown) [Compound 426] |
| 12.8 µM | – | CN1CC[C@@H](Oc2ccc(-c3nc4cc(-c5ccc6[nH]c(-c7ccc(O)cc7)nc6c5)ccc4[nH]3)cc2)C1 [Compound 374] |
| 49.9 µM | – | CN(C)CCSc1ccc(-c2nc3cc(-c4ccc5[nH]c(-c6ccc(SCCN(C)C)cc6)nc5c4)ccc3[nH]2)cc1 [Compound 381] |
| 4.85 µM | – | CN(C)CCNC(=O)c1ccc(-c2nc3cc(-c4ccc5[nH]c(-c6ccc(C(=O)NCCCCCCNC(=O)c7ccc(-c8nc9cc(-c%10ccc%11[nH]c(-c%12ccc(C(=O)NCCN(C)C)cc%12)nc%11c%10)ccc9[nH]8)cc7)cc6)nc5c4)ccc3[nH]2)cc1 [Compound 419] |
| 6.32 µM | – | CN(C)CCNC(=O)c1ccc(-c2nc3cc(-c4ccc5[nH]c(-c6ccc(C(=O)NCCCCNC(=O)c7ccc(-c8nc9cc(-c%10ccc%11[nH]c(-c%12ccc(C(=O)NCCN(C)C)cc%12)nc%11c%10)ccc9[nH]8)cc7)cc6)nc5c4)ccc3[nH]2)cc1 [Compound 420] |
| 17.4 µM | – | CN(C)CCNC(=O)c1ccc(-c2nc3cc(-c4ccc5[nH]c(-c6ccc(OCCN(C)C)cc6)nc5c4)ccc3[nH]2)cc1 [Compound 382] |
| > 200 µM | – | CN(C)CCNC(=O)c1ccc(-c2nc3cc(-c4ccc5[nH]c(-c6ccc(C(=O)O)cc6)nc5c4)ccc3[nH]2)cc1 [Compound 390, 4-(2′-(4-((2-(dimethylamino)ethyl)carbamoyl)phenyl)-3H,3′H-[5,5′-bibenzo[d]imidazol]-2-yl)benzoic acid] |
| 50.6 µM | – | CN(C)CCNC(=O)c1ccc(-c2nc3cc(-c4ccc5[nH]c(-c6ccc(C(=O)N(C)CCCN(C)C(=O)c7ccc(-c8nc9cc(-c%10ccc%11[nH]c(-c%12ccc(C(=O)NCCN(C)C)cc%12)nc%11c%10)ccc9[nH]8)cc7)cc6)nc5c4)ccc3[nH]2)cc1 [Compound 409] |
| 18.4 µM | – | COCCCOc1ccc(-c2nc3cc(-c4ccc5[nH]c(-c6ccc(C(=O)NCCN(C)C)cc6)nc5c4)ccc3[nH]2)cc1 [Compound 391] |
